Assay results as given in ChEMBL document CHEMBL5252583, “Cancer cell growth suppressibility of ω-3 fatty acid whose carboxy group converted to ester group” (Bioorg Med Chem Lett, 2023).

How the values were obtained:
[1] = Drug uptake in human MIA PaCa-2 cells assessed as increase in incorporation of compound into lipid droplets by measuring absorbance at 50 uM incubated for 24 hrs by Oil Red O staining based fluorescence microscopic analysis (reference value: 2.35 +/- 0.11 10^-2No_unit); assay type: ADME, cell-based; conditions: mia paca-2, 24 h
[2] = system: MIA PaCa-2; test: Antiproliferative activity against human MIA PaCa-2 cells assessed as cell growth inhibition at 500 uM measured after 24 hrs by alamar blue assay relative to control; assay type: functional
[3] = system: HCT-116; test: Antiproliferative activity against human HCT-116 cells assessed as cell growth inhibition at 500 uM measured after 24 hrs by alamar blue assay relative to control; assay type: functional
[4] = system: MCF7; test: Antiproliferative activity against human MCF7 cells assessed as cell growth inhibition at 500 uM measured after 24 hrs by alamar blue assay relative to control; assay type: functional

For `CC/C=C\C/C=C\C/C=C\CCCCCCCC(=O)Oc1ccccc1`, the Activity [1] was 4.12 10^-2No_unit, the inhibition at 500 µM [2] was 23% and the inhibition at 500 µM [3] was 36%. The inhibition at 500 µM [4] was 48%.
With `CC/C=C\C/C=C\C/C=C\CCCCCCCC(=O)Oc1ccc(OC)cc1` the Activity [1] was 3.94 10^-2No_unit, the inhibition at 500 µM [2] was 26% and the inhibition at 500 µM [3] was 40%. It also gave an inhibition at 500 µM [4] of 49%.
With `CC/C=C\C/C=C\C/C=C\CCCCCCCC(=O)Oc1ccc(C(F)(F)F)cc1` the Activity [1] was 4.07 10^-2No_unit, the inhibition at 500 µM [2] was 25% and the inhibition at 500 µM [3] was 37%. For the same molecule, the inhibition at 500 µM [4] was 47%.
With `CC/C=C\C/C=C\C/C=C\CCCCCCCC(=O)O` [LINOLENIC ACID] the Activity [1] was 4.19 10^-2No_unit, the inhibition at 500 µM [2] was 25% and the inhibition at 500 µM [3] was 36%. The inhibition at 500 µM [4] was 50%.
